Data published in US10398682B2, “Methods and compositions to prevent or treat bacterial infections” (THE BOARD OF REGENTS OF THE UNIVERSITY OF TEXAS SYSTEM, priority 2013, dated 2019).
≈ marks a conversion by molar mass, not a printed value.

Assays:
[1] = mouse, in vivo; cited from earlier work
Acinetobacter baumannii [2] = test: Repeat MIC experiment performed to CLSI standards; assay type: cell-based
[3] = humans; 300 mg/m^2 dose level; cited from earlier work
[4] = tested on: A. baumannii strain CI 79; test: Bacterial adherence to mouse intestinal sections; assay type: cell-based, Acinetobacter baumannii
Experimental: Intestinal sections were cut down one side to expose the inner lumen of the intestine and individually placed in suspensions of A. baumannii strain CI 79 (10^7 CFU/mL). The sections were incubated in this mixture for 30 minutes, washed twice in 250 volumes of sterile PBS and soaked in 500 volumes of PBS (volume of section ˜50-100 μL) for five minutes. The remaining bound bacteria were enumerated through homogenization of each section into single cell suspensions in 10 mL sterile PBS followed by dilution plating.

Acinetobacter baumannii [5] = test: SIgA breakdown / secretory component liberation by Acinetobacter baumannii (Western blot); assay type: cell-based; details: for SC liberation / SIgA reduction: 2 hours after incubation
Experimental: Acinetobacter baumannii was incubated with 50 μg/mL SIgA to examine breakdown of the immunoglobulin. Breakdown of SIgA by A. baumannii was observed by liberation of secretory component from dimeric IgA. Goat anti-human secretory component (free and bound) antibody was used to monitor this occurrence though Western blot. A mixture of A. baumannii strain CI 79 was prepared in three concentrations—10^7, 10^6, and 10^5 CFU/mL—to determine whether SIgA breakdown was dose dependent with respect to bacterial concentration FIG. 1A. […] Next, two competitive inhibitors of reductase enzymes targeting the thioredoxin fold (-C-X-X-C-) motif typically found in thiol-reductase enzymes (thioredoxin, glutathione, thioredoxin reductase, etc) were identified. The first, dithionitrobenzoic acid (Ellman's reagent) is often used as a colorimetric substrate to monitor thioredoxin activity as it produces a bright yellow color upon cleavage of the disulfide bond within the molecule. The second is PX-12. […] Although not shown here, inhibition was still evident at 24 hours with Ellman's reagent, PX-12 inhibition seemed to be overcome by the bacteria after about 12 hours. […] (Error bars represent±SEM in all graphs; statistical differences determined by ANOVA with Dunnett correction; *significance p<0.01; **p<0.001).

[6] = tested on: multi-drug resistant (MDR) Acinetobacter baumannii clinical isolates; test: Minimum inhibitory concentration (MIC) determination; assay type: cell-based
Experimental: PX-12 concentrations used in these experiments approximated the concentration reported “well tolerated” by mice (˜500 μg/mouse; 500 μg/mL for this experiment). […] Furthermore, this concentration was also bactericidal leading us to believe it may potentially be useful as a new antimicrobial compound for treating MDR Acinetobacter baumannii. (Bacterial concentrations used in presented studies ˜100× higher than recommended by CLSI standards)

[7] = cation adjusted Mueller Hinton broth, ~5×10^5 CFU/mL, 64 to 0.5 μg/mL tested

Row | Compound | concentration reported well tolerated [1] [μg/mouse] | MBC (Acinetobacter baumannii [2]; [7]) | MIC (Acinetobacter baumannii [2]; [7]) | type of antimicrobial activity (Acinetobacter baumannii [2]; concluded from MIC and MBC) | dose-limiting toxicities [3] | bacterial adherence to intestinal sections ([4]; 18 μg/mL, sections from WT C57BL/6 mice) | reduction of bacterial attachment ([4]; WT intestinal sections as 100% control, A. baumannii CI 79 10^7 CFU/mL, 30 minutes) [%] | SC liberation (Acinetobacter baumannii [5]; inhibitor 15 μg/mL) | SIgA reduction (Acinetobacter baumannii [5]; inhibitor 15 μg/mL) | time after which inhibition is overcome by the bacteria (Acinetobacter baumannii [5]; not shown) | SIgA breakdown by Acinetobacter baumannii (Acinetobacter baumannii [5]; up to 2 hours following treatment with 18 μg/mL) | bactericidal effect at the MIC ([6]; 31.25 μg/mL) | bacterial pellet size ([6]; 500 μg/mL) | MIC ([6]; Acinetobacter baumannii, MDR clinical isolates, with one exception, bacterial concentrations ~100× higher than CLSI) [µg/mL] | SC liberation (Acinetobacter baumannii [5]; inhibitor 1 mM) | SIgA reduction (Acinetobacter baumannii [5]; inhibitor 1 mM) | inhibition of SIgA reduction at 24 hours (Acinetobacter baumannii [5]; 24 hours, not shown) | SIgA breakdown by Acinetobacter baumannii (Acinetobacter baumannii [5]; after addition of the substrate, concentration not given)
1 | CCC(C)SSc1ncc[nH]1 (stereo not drawn) [PX-12, 1-methylpropyl 2-imidazolyl disulfide] | ~500 | low | low | bactericidal activity | Grade 3 hypoxia and Grade 2 reversible bilateral pneumonitis | significantly inhibits | 40 | completely ablated | completely ablated | about 12 hours | significantly reduced | bactericidal | visible decrease | 31.2 (≈ 166 µM) | – | – | – | –
2 | O=C(O)c1cc(SSc2ccc([N+](=O)[O-])c(C(=O)O)c2)ccc1[N+](=O)[O-] [dithionitrobenzoic acid] | – | – | – | – | – | – | – | – | – | – | – | – | – | – | completely ablated | completely ablated | still evident | significantly reduced
